The target of one experiment is T1, RARalpha (Homo sapiens, UniProt P10276).
T1 sequence (P10276 183-417 limits assumed): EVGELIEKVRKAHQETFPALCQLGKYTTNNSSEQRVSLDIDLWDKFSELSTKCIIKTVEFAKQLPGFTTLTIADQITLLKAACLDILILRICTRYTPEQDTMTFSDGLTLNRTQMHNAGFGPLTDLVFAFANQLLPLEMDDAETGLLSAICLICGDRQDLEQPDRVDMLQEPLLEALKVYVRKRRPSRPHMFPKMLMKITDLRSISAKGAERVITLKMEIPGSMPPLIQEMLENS
In words: Transactivation test (Kdapp), RARalpha. In kind it is cell-based. To be noted: HeLa stable transfectants, luciferase reporter, crossed curves against reference agonist, Schild regression. As to the method:
(§1) The activation of receptors with an agonist (activator) in HeLa cells leads to the expression of a reporter gene, luciferase, which, in the presence of a substrate, generates light. The activation of the receptors may thus be measured by quantifying the luminescence produced after incubating the cells in the presence of a reference agonist. The inhibitory products displace the agonist from its site, thus preventing activation of the receptor. The activity is measured by quantifying the reduction in light produced. This measurement makes it possible to determine the inhibitory activity of the compounds according to the invention.
(§2) In this study, a constant is determined which is the affinity of the molecule for the receptor. Since this value can fluctuate depending on the basal activity and the expression of the receptor, it is referred to as the Kd apparent (KdApp).
(§3) To determine this constant, “crossed curves” of the test product against a reference agonist, 4-[2-(5,5,8,8-tetramethyl-5,6,7,8-tetrahydro-2-naphthyl)propenyl]benzoic acid, are performed in 96-well plates. The test product is used at 10 concentrations and the reference agonist at 7 concentrations. In each well, the cells are in contact with a concentration of the test product and a concentration of the reference agonist, 4-[2-(5,5,8,8-tetramethyl-5,6,7,8-tetrahydro-2-naphthyl)propenyl]benzoic acid. Measurements are also taken for the total agonist (4-[2-(5,5,8,8-tetramethyl-5,6,7,8-tetrahydro-2-naphthyl)propenyl]benzoic acid) and inverse agonist, 4-{(E)-3-[4-(4-tert-butylphenyl)-5,5,8,8-tetramethyl-5,6,7,8-tetrahydro-2-naphthyl]-3-oxopropenyl}benzoic acid, controls.
(§4) The HeLa cell lines used are stable transfectants containing the plasmids ERE-βGlob-Luc-SV-Neo (reporter gene) and RAR (α, β, γ) ER-DBD-puro. These cells are inoculated into 96-well plates at a rate of 10,000 cells per well in 100 μl of DMEM medium without phenol red, and supplemented with 10% defatted calf serum. The plates are then incubated at 37° C. and 7% CO2 for 4 hours.
(§5) The plates are then incubated for 18 hours at 37° C. and 7% CO2.
(§6) The culture medium is removed by turning over and 100 μl of a 1:1 PBS/luciferine mixture is added to each well. After 5 minutes, the plates are read using the luminescence reader.
On the technique in general: In a reporter assay the amount or activity of a reporter protein is the signal.

The target in the next experiment is T2, RARbeta (Homo sapiens, UniProt P10826).
T2 sequence (P10826 183-417 limits assumed): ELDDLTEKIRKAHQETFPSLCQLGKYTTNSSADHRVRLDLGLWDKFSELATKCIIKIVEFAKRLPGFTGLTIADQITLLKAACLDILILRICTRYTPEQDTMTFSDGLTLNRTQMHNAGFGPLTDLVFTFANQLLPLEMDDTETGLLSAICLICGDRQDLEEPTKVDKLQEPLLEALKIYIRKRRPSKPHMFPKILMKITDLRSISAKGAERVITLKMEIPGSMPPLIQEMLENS
In words: Transactivation test (Kdapp), RARbeta. The class given is cell-based. To be noted: HeLa stable transfectants, luciferase reporter, crossed curves against reference agonist, Schild regression. As to the method: as §1, §2, §3, §4, §5, §6

SMILES strings stand for the structures. Where a name gives a salt, the structure may show the parent alone.

On to `CCNc1ccc(-c2cc(-c3ccc(C(=O)O)cc3)ccc2OCCCO)cc1C(C)(C)C` [Example 54, 3″-tert-butyl-4″-ethylamino-4′-(3-hydroxypropoxy)-[1,1′;3′,1″]terphenyl-4-carboxylic acid], for which the Kd on RARalpha came to 8 nM; on RARbeta, 4 nM.

In the case of `CCN(C(C)=O)c1ccc(-c2cc(-c3ccc(C(=O)O)cc3)ccc2CCCNC2CC2)cc1C(C)(C)C` [Example 47, 4″-(acetylethylamino)-3″-tert-butyl-4′(3-cyclopropylaminopropyl)[1,1′;3′,1″]terphenyl-4-carboxylic acid], the Kd on RARbeta amounted to 250 nM.

In the case of `CCN(C(C)=O)c1ccc(-c2cc(-c3ccc(C(=O)O)cc3)ccc2CCCO)cc1C(C)(C)C` [Example 37, 4″-(acetylethylamino)-3″-tert-butyl-4′-(3-hydroxypropyl)-[1,1′;3′,1″]terphenyl-4-carboxylic acid], the Kd at RARalpha came to 250 nM; at RARbeta, 120 nM.

In the case of `CCN(C(C)=O)c1ccc(-c2cc(-c3ccc(C(=O)O)cc3)ccc2OCCCCO)cc1C(C)(C)C` [Example 5, 4″-(acetylethylamino)-3″-tert-butyl-4′-(4-hydroxybutoxy)-[1,1′;3′,1″]terphenyl-4-carboxylic acid], the Kd at RARalpha and on RARbeta was 8 nM throughout.

For the molecule `CCN(CC)c1ccc(-c2cc(-c3ccc(C(=O)O)cc3)ccc2CC(O)CO)cc1C(C)(C)C` (centres unmarked) [Example 35, 3″-tert-butyl-4″-diethylamino-4′-(2,3-dihydroxypropyl)-[1,1′;3′,1″]terphenyl-4-carboxylic acid], the Kd was found to be 4000 nM at RARalpha and 500 nM at RARbeta.

On to `CCN(CC)c1ccc(-c2cc(-c3ccc(C(=O)O)cc3)ccc2CCCO)cc1C(C)(C)C` [Example 33, 3″-tert-butyl-4″-diethylamino-4′-(3-hydroxypropyl)-[1,1′;3′,1″]terphenyl-4-carboxylic acid], for which the figures for the Kd at RARalpha and on RARbeta were 60 nM and 8 nM, respectively.

For `CCN(CC)c1ccc(-c2cc(-c3ccc(C(=O)O)cc3)ccc2OCCCO)cc1C` [Example 17, 4″-diethylamino-4′-(3-hydroxypropoxy)-3″-methyl[1,1′;3′,1″]terphenyl-4-carboxylic acid], the Kd was 250 nM at RARalpha and 8 nM at RARbeta.

On to `CCc1cc(-c2cc(-c3ccc(C(=O)O)cc3)ccc2OCCO)ccc1N(CC)CC` [Example 13, 4″-diethylamino-3″-ethyl-4′-(2-hydroxyethoxy)-[1,1′;3′,1″]terphenyl-4-carboxylic acid], for which the Kd on RARalpha was determined as 500 nM; at RARbeta it was 4 nM.

Turning to `CCN(CC)c1ccc(-c2cc(-c3ccc(C(=O)O)cc3)ccc2CCCO)cc1C(C)(C)C` [Example 52, [3″-tert-butyl-4-carboxy-4′-(3-hydroxypropyl)-[1,1′;3′,1″]terphenyl-4″-yl]diethylamine hydrochloride], the Kd stood at 30 nM at RARalpha (hydrochloride) and 2 nM on RARbeta (hydrochloride).

Values taken from patent US8470871B2, “Ligands that modulate RAR receptors” (Galderma Research & Development, priority 2004, dated 2013).
